Source: patent publication US20140187426A1, “CROP ENHANCEMENT” (SYNGENTA PARTICIPATIONS AG, priority 2011, published 2014)

What was measured:
Assay type in all cases: in vivo
summer barley (Pasadena) = assay: Glasshouse trial, lodging of summer barley after leaf spray; settings: for % lodging 30 DAA Summary barley: leaf spray at growth stage 30, 30 days after application
Text: (§1) A glasshouse trial was setup to assess growth effects of cis-jasmone on summer barley (Pasadena) and winter rye (Reknit).
(§2) Each treatment was applied as a spray to the leaves of the plant at plant growth stage 30 (start of stem elongation). Assessments of lodging were made 30 days after application; the results are expressed as percentage lodging in Table 2.

winter rye (Reknit) = assay: Glasshouse trial, lodging of winter rye after leaf spray; settings: for % lodging 30 DAA Winter rye: leaf spray at growth stage 30, 30 days after application
Text: as §1, §2

Poa annua [1] = assay: Turf colour assessment, golf course fairway trial
Text: (§3) A trial was setup to assess crop (turf) enhancement effects of cis-jasmone on Poa annua in a golf course […]. Each treatment was applied as a spray to the turfgrass. Assessments of turf colour and quality were made at several intervals after application; the results are expressed on a scale of 1 (poor) to 10 (good).

Poa annua [2] = assay: Turf quality assessment, golf course fairway trial
Text: as §3

creeping bentgrass = assay: Turf colour assessment, golf course green trial; settings: for Plant Colour 14DAA (2) / Plant Colour 14 DAA (3) / Plant Colour 7AA (2): scale 1 (poor) to 10 (good), 3 apps - 4 week interval; for Plant Colour 14DAA (2): 14 days after application 2; for Plant Colour 14 DAA (3): 14 days after application 3; for Plant Colour 7AA (2): after application 2
Text: A trial was setup to assess crop (turf) enhancement effects of cis-jasmone on a creeping bentgrass golf course green. Each treatment was applied as a spray to the turfgrass. Assessments of turf colour and quality were made at several intervals after application; the results are expressed on a scale of 1 (poor) to 10 (good) in Table 5.

hybrid bermudagrass = assay: Turf growth (clipping weights), golf course fairway trial; settings: for Clipping wt (g) 32 DAA (1): 3 apps - 4 week interval, 32 days after application 1
Text: A trial was setup to assess crop enhancement effects of cis-jasmone on a hybrid bermudagrass golf course […]. Each treatment was applied as a spray to the turfgrass. Assessments of turf growth (clipping weights in grams) were made at several intervals after application.

[3] = system: summer oil seed rape variety Jumbo; assay: Glasshouse trial, leaf chlorophyll content (Dualex), variety Jumbo
Text: (§4) A glasshouse trial was setup to assess growth effects of cis-jasmone on summer oil seed rape varieties Jumbo and Senator. Each treatment was applied as a spray to the leaves of the plant at plant growth stage 13 (3 leaves). Three replicates of 2 plants were sowed in pots in the greenhouse. Assessments of chlorophyll content of the leaves were made using the Dualex technique 25 days after application; the results are expressed as Dualex units of Chlorophyll in Table 8.

[4] = system: summer oil seed rape variety Senator; assay: Glasshouse trial, leaf chlorophyll content (Dualex), variety Senator
Text: as §4

[5] = during the entire study, versus untreated check
[6] = scale 1 (poor) to 10 (good), 50 g ai/ha, 4 applications on a 4 week schedule, 9-Jul
[7] = scale 1 (poor) to 10 (good), 50 g ai/ha, 4 applications on a 4 week schedule, 16-Jul
[8] = scale 1 (poor) to 10 (good), 50 g ai/ha, 4 applications on a 4 week schedule, 17-Jun

In the case of `CC/C=C\CC1=C(C)CCC1=O` [Cis-jasmone (CJN), cis-jasmone], the “% lodging 30 DAA Summary barley” value (summer barley (Pasadena); 150 g AI/ha) is reported as 70.0%, the “% lodging 30 DAA Summary barley” value (summer barley (Pasadena); 300 g AI/ha) is reported as 60.0% and the “initial growth (in words)” value (summer barley (Pasadena); summer barley) is reported as “faster initial growth”. The “effect on lodging (in words)” value (summer barley (Pasadena); summer barley, versus untreated check) was “significantly increases lodging”, the “% lodging 30 DAA Winter rye” value (winter rye (Reknit); 150 g AI/ha) was 30.0% and the “% lodging 30 DAA Winter rye” value (winter rye (Reknit); 300 g AI/ha) was 23.3%. For the same compound, the “effect on lodging (in words)” value (winter rye (Reknit); winter rye, versus untreated check) was “significantly increases lodging”, the “effect on turf colour (in words)” value (Poa annua [1]; [5]) was “significantly increased turf colour” and the “Turf colour 4-June” value (Poa annua [1]; scale 1 (poor) to 10 (good), 50 g ai/ha, 4 applications on a 4 week schedule, 4-June) was 7.80 b. The “Turf colour 9-Jul” value (Poa annua [1]; [6]) was 8.2 a, the “Turf colour 10-June” value (Poa annua [1]; scale 1 (poor) to 10 (good), 50 g ai/ha, 4 applications on a 4 week schedule, 10-June) was 8.16 a and the “Turf colour 14-May” value (Poa annua [1]; scale 1 (poor) to 10 (good), 50 g ai/ha, 4 applications on a 4 week schedule, 14-May) was 5.8 b. For the same compound, the “Turf colour 16-Jul” value (Poa annua [1]; [7]) was 7.96 a, the “Turf colour 17-Jun” value (Poa annua [1]; [8]) was 7.80 a and the “Turf colour 21-May” value (Poa annua [1]; scale 1 (poor) to 10 (good), 50 g ai/ha, 4 applications on a 4 week schedule, 21-May) was 8.08 b. The “Turf colour 28-May” value (Poa annua [1]; scale 1 (poor) to 10 (good), 50 g ai/ha, 4 applications on a 4 week schedule, 28-May) was 6.00 b, the “effect on turf quality (in words)” value (Poa annua [2]; [5]) was “significantly increased turf quality” and the “Turf quality 3-Jul” value (Poa annua [2]; scale 1 (poor) to 10 (good), 50 g ai/ha, 4 applications on a 4 week schedule, 3-Jul) was 8.46 a. For the same compound, the “Turf quality 9-Jul” value (Poa annua [2]; [6]) was 8.42 a, the “Turf quality 10-Jun” value (Poa annua [2]; scale 1 (poor) to 10 (good), 50 g ai/ha, 4 applications on a 4 week schedule, 10-Jun) was 8.2 a and the “Turf quality 16-Jul” value (Poa annua [2]; [7]) was 8.1 a. For the same compound, the “Turf quality 17-Jun” value (Poa annua [2]; [8]) was 8.8 a, the “Turf quality 23-Jul” value (Poa annua [2]; scale 1 (poor) to 10 (good), 50 g ai/ha, 4 applications on a 4 week schedule, 23-Jul) was 8.18 a and the “Turf quality 24-Jun” value (Poa annua [2]; scale 1 (poor) to 10 (good), 50 g ai/ha, 4 applications on a 4 week schedule, 24-Jun) was 8.74 a. The “Turf quality 31-Jul” value (Poa annua [2]; scale 1 (poor) to 10 (good), 50 g ai/ha, 4 applications on a 4 week schedule, 31-Jul) was 7.96 a, the “effect on turf colour (in words)” value (creeping bentgrass; [5]) was “significantly increased turf colour” and the “Plant Colour 14DAA (2)” value (creeping bentgrass; 50 g ai/ha) was 5.40 e. The “Plant Colour 14 DAA (3)” value (creeping bentgrass; 50 g ai/ha) was 6.00 c, the Plant Colour 7AA (2) (creeping bentgrass; 50 g ai/ha) was 5.6 and the “Plant Colour 14DAA (2)” value (creeping bentgrass; 100 g ai/ha) was 6.00 c. The “Plant Colour 14 DAA (3)” value (creeping bentgrass; 100 g ai/ha) was 6.00 c, the Plant Colour 7AA (2) (creeping bentgrass; 100 g ai/ha) was 5.7 and the “Plant Colour 14DAA (2)” value (creeping bentgrass; 150 g ai/ha) was 6.00 c. For the same compound, the “Plant Colour 14 DAA (3)” value (creeping bentgrass; 150 g ai/ha) was 6.00 c, the Plant Colour 7AA (2) (creeping bentgrass; 150 g ai/ha) was 6.08 and the “Clipping wt (g) 32 DAA (1)” value (hybrid bermudagrass; 50 g ai/ha) was 37 ab g. The “Clipping wt (g) 32 DAA (1)” value (hybrid bermudagrass; 100 g ai/ha) was 45 a g, the “Clipping wt (g) 32 DAA (1)” value (hybrid bermudagrass; 150 g ai/ha) was 25 c g and the “effect on clipping weights (in words)” value (hybrid bermudagrass; early in the trial, versus untreated check) was “significantly increased clipping weights”. For the same compound, the “effect on chlorophyll content (in words)” value [3] was “increased chlorophyll content” and the “effect on chlorophyll content (in words)” value [4] was “not”.
